Consider ten compounds from patent US8536354B2, “Steroidal ligands and their use in gene switch modulation” (Intrexon Corporation, priority 2008, dated 2013).

In assay [1] the target is T1, Tenebrio molitor EcR (TmEcR-DEF) (Tenebrio molitor, UniProt O02035).
T1 sequence (O02035 194-491): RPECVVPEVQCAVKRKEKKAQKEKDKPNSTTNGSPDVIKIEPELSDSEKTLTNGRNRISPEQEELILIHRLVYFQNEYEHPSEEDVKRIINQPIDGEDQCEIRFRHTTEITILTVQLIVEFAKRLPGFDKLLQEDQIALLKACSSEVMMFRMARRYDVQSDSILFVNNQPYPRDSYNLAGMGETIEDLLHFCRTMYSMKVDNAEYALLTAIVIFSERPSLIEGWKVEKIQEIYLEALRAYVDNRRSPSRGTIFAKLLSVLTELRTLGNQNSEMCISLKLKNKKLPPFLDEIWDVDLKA
T1 sequence (P28704 285-520 partner): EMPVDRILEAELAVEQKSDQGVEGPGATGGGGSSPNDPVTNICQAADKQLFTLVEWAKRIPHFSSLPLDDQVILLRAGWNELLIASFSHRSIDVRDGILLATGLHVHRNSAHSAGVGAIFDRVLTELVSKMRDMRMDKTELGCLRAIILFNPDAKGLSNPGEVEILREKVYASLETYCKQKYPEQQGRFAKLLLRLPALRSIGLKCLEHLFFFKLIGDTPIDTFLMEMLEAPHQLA
As to the kind of experiment: Two-hybrid gene switch assay, TmEcR-DEF in NIH3T3 cells. Conditions: for Emax: NIH3T3, 48 h.

Assay [2] deals with T2, wild-type Aedes aegypti EcR (AaEcR-DEF) (Aedes aegypti, UniProt P49880).
T2 sequence (P49880 405-776 limits assumed): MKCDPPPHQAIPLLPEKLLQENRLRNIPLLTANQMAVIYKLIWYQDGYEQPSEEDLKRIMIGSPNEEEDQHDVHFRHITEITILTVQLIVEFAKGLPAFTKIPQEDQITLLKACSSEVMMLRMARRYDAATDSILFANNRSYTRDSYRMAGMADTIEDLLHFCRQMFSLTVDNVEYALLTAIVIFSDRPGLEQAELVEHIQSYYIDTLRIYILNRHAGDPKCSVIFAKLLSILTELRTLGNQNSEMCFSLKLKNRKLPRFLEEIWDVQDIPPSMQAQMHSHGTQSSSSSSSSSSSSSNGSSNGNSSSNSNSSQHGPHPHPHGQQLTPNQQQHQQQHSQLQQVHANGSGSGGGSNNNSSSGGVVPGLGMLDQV
As to the kind of experiment: Two-hybrid gene switch assay, AaEcR-DEF in NIH3T3 cells. The conditions noted are these: AaEcR; for rel max FI (20E), AA: max fold induction at any concentration relative to 20E; for rel max FI (PoA), AA: max fold induction at any concentration relative to PoA; for EC50: NIH3T3 cells, luciferase, 48 h, ligand 0.01-33 μM.

Assay [3] concerns the target T3, Manduca sexta EcR (MsEcR) (Manduca sexta, UniProt P49883).
T3 sequence (P49883 293-531 limits assumed): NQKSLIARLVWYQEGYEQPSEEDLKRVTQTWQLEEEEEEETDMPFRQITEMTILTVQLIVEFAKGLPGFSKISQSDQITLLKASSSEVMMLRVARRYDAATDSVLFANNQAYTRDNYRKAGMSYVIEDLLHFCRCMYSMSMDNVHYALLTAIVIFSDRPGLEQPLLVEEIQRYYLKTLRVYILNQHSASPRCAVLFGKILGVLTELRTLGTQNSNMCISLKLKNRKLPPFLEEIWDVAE
Nature of the assay: Two-hybrid gene switch assay, MsEcR-CDEF in NIH3T3 cells. The conditions noted are these: for rel max FI (20E), MS: max fold induction at any concentration relative to 20E; for rel max FI (PoA), MS: max fold induction at any concentration relative to PoA.

Assay [4] addresses T4, wild-type Choristoneura fumiferana EcR (CfEcR-DEF) (Choristoneura fumiferana, UniProt O77255).
T4 sequence (O77255 219-541): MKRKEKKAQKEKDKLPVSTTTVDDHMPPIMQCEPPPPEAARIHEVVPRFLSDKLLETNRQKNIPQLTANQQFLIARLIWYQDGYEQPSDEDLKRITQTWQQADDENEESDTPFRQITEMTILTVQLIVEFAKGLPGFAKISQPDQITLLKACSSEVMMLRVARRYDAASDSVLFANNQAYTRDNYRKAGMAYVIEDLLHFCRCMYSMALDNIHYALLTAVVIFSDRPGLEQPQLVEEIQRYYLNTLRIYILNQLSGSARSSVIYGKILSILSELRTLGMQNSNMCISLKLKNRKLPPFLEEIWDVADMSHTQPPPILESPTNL
T4 sequence (P28702 299-449 partner): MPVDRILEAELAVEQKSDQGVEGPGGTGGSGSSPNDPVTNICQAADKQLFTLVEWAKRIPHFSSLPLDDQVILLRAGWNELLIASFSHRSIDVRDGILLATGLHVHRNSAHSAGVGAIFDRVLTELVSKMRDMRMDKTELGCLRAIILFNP
As to the kind of experiment: Two-hybrid gene switch assay, wild-type CfEcR-DEF (GAL4-EcR / VP16-RXR-USP chimera, luciferase) in NIH3T3 cells. The conditions noted are these: for Emax: NIH3T3, 48 h.

Assay [5] has as its system EcRs (lepidopteran and non-lepidopteran). Nature of the assay: Two-hybrid gene switch assays, statements across the set of ten EcRs in NIH3T3 cells.
For assay [6], the system named is D. melanogaster BII cell line (expresses the ecdysteroid receptor complex EcR-USP). Nature of the assay: Drosophila melanogaster BII cell line bioassay (turbidometric; agonist and antagonist versions). The conditions noted are these: Drosophila BII cell line, Example Two.

“Also recorded” adds a separate entry of the source. Read-outs that look alike come from different tables or passages of the source.

Consider `COC1C[C@H]2C(=O)C=C3[C@H](CC[C@]4(C)[C@@H]([C@@](C)(O)C(CCC(C)(C)O)OC)CC[C@@]34OC)[C@@]2(C)CC1OC` (some centres unmarked) [20E-2,3,14,22-tetramethyl ether], for which the “rel max FI (20E), TM” value in assay [1] (TmEcR, max fold induction at any concentration relative to 20E) came out at 0.05. Further, in assay [1] (TmEcR, max fold induction at any concentration relative to PoA), the “rel max FI (PoA), TM” value is recorded as 0.02. Moreover, the concentration giving a half-maximal response (EC50) in assay [1] (read-out: EC50 (μM), TM, TmEcR, NIH3T3 cells, luciferase, 48 h, ligand 0.01-33 μM) was > 33 µM; in assay [2] (read-out: EC50 (μM), AA), > 33 µM; in assay [3] (read-out: EC50 (μM), MS, MsEcR, NIH3T3 cells, luciferase, 48 h, ligand 0.01-33 μM), > 33 µM; in assay [4] (read-out: EC50 (μM), CF, wild-type CfEcR, NIH3T3 cells, luciferase, 48 h, ligand 0.01-33 μM), > 33 µM. Moreover, the “rel max FI (20E), AA” value in assay [2] is 0.07. In addition, in assay [2], the “rel max FI (PoA), AA” value amounted to 0.02. Besides, the “rel max FI (20E), MS” value in assay [3] (MsEcR) is 0.00. Besides, the “rel max FI (PoA), MS” value in assay [3] (MsEcR) came out at 0.00. Moreover, in assay [4] (wild-type CfEcR, max fold induction at any concentration relative to 20E), the “rel max FI (20E), CF” value is reported as 0.46. Further, in assay [4] (wild-type CfEcR, max fold induction at any concentration relative to PoA), the “rel max FI (PoA), CF” value was found to be 0.00.
With `CO[C@H]1C[C@@]2(C)[C@@H](C[C@H]1O)C(=O)C=C1[C@@H]2CC[C@]2(C)[C@@H]([C@@](C)(O)[C@@H](CCC(C)(C)O)OC)CC[C@@]12O` [20E-2,22-dimethyl ether], the 50% effective concentration (EC50) was ~10 µM in assay [1]; ~8 µM in assay [2] (EC50 (μM), AA); ~20 µM in assay [3]; > 33 µM in assay [4]. For the same compound, the Emax in assay [1] (read-out: rel max FI (20E), TM) was 24%; in assay [1] (read-out: rel max FI (PoA), TM), 13%; in assay [4] (read-out: rel max FI (20E), CF), 63%; in assay [4] (read-out: rel max FI (PoA), CF), 0%. Besides, the “rel max FI (20E), AA” value in assay [2] is on record as 2.34. Further, the “rel max FI (PoA), AA” value in assay [2] is on record as 0.80. Further, in assay [3] (MsEcR), the “rel max FI (20E), MS” value was 0.15. Moreover, the “rel max FI (PoA), MS” value in assay [3] (MsEcR) was determined as 0.09.
On to `CO[C@H]1C[C@@]2(C)[C@@H](C[C@H]1O)C(=O)C=C1[C@@H]2CC[C@]2(C)[C@@H]([C@@](C)(O)[C@H](O)CCC(C)(C)O)CC[C@@]12O` [20E-2-methyl ether], for which the half-maximal effective concentration (EC50) is > 33 µM in assay [1]; ~10 µM in assay [2] (EC50 (μM), AA); ~20 µM in assay [3]; > 33 µM in assay [4]. For the same compound, the Emax is 7% in assay [1] (read-out: rel max FI (20E), TM); 4% in assay [1] (read-out: rel max FI (PoA), TM); 14% in assay [4] (read-out: rel max FI (20E), CF); 0% in assay [4] (read-out: rel max FI (PoA), CF). In assay [2], the “rel max FI (20E), AA” value is given as 0.87. Besides, the “rel max FI (PoA), AA” value in assay [2] worked out at 0.30. For the same compound, the “rel max FI (20E), MS” value in assay [3] (MsEcR) was found to be 0.16. The “rel max FI (PoA), MS” value in assay [3] (MsEcR) is 0.10.
As to `CO[C@@H]1C[C@H]2C(=O)C=C3[C@H](CC[C@]4(C)[C@@H]([C@@](C)(O)[C@@H](CCC(C)(C)O)OC)CC[C@@]34O)[C@@]2(C)C[C@@H]1O` [20E-3,22-dimethyl ether], the EC50 was ~6 µM in assay [1]; 7.15 µM in assay [2] (EC50 (μM), AA); ~10 µM in assay [3]; > 33 µM in assay [4]. Also, the Emax in assay [1] (read-out: rel max FI (20E), TM) is 137%; in assay [1] (read-out: rel max FI (PoA), TM), 71%; in assay [4] (read-out: rel max FI (20E), CF) it was 46%; in assay [4] (read-out: rel max FI (PoA), CF), 0%. Also, the “rel max FI (20E), AA” value in assay [2] was determined as 2.32. For the same compound, the “rel max FI (PoA), AA” value in assay [2] is 0.79. Further, in assay [3] (MsEcR), the “rel max FI (20E), MS” value turned out to be 0.82. The “rel max FI (PoA), MS” value in assay [3] (MsEcR) is given as 0.52.
Regarding `CO[C@@H]1C[C@H]2C(=O)C=C3[C@H](CC[C@]4(C)[C@@H]([C@@](C)(O)[C@H](O)CCC(C)(C)O)CC[C@@]34O)[C@@]2(C)C[C@@H]1O` [20E-3-methyl ether], the concentration giving a half-maximal response (EC50) in assay [1] is ~10 µM; in assay [2] (EC50 (μM), AA), ~10 µM; in assay [3], ~10 µM; in assay [4] it was > 33 µM. The Emax in assay [1] (read-out: rel max FI (20E), TM) is 114%; in assay [1] (read-out: rel max FI (PoA), TM) it was 59%; in assay [4] (read-out: rel max FI (20E), CF) it was 115%; in assay [4] (read-out: rel max FI (PoA), CF), 1%. Moreover, in assay [2], the “rel max FI (20E), AA” value is reported as 1.75. Moreover, the “rel max FI (PoA), AA” value in assay [2] came out at 0.60. Also, the “rel max FI (20E), MS” value in assay [3] (MsEcR) amounted to 1.15. The “rel max FI (PoA), MS” value in assay [3] (MsEcR) is 0.73.
Take `CO[C@H](CCC(C)(C)O)[C@](C)(O)C1CC[C@@]2(O)C3=CC(=O)C4C[C@@H](O)[C@@H](O)CC4(C)C3CCC12C` (some centres unmarked) [20E-22-methyl ether]: the concentration giving a half-maximal response (EC50) is 7.08 µM in assay [1]; 1.04 µM in assay [2] (EC50 (μM), AA); ~10 µM in assay [3]; > 33 µM in assay [4]. Also, the Emax in assay [1] (read-out: rel max FI (20E), TM) was found to be 158%; in assay [1] (read-out: rel max FI (PoA), TM), 81%; in assay [4] (read-out: rel max FI (20E), CF), 7%; in assay [4] (read-out: rel max FI (PoA), CF), 0%. In assay [2], the “rel max FI (20E), AA” value turned out to be 2.52. In assay [2], the “rel max FI (PoA), AA” value is 0.86. Also, in assay [3] (MsEcR), the “rel max FI (20E), MS” value amounted to 1.29. Further, in assay [3] (MsEcR), the “rel max FI (PoA), MS” value is 0.81.
Turning to `CC(C)CC[C@@H](O)[C@](C)(O)[C@H]1CC[C@@]2(O)C3=CC(=O)[C@@H]4C[C@@H](O)[C@@H](O)C[C@]4(C)[C@H]3[C@H](O)C[C@]12C` [ajugasterone C], the “selectivity / relative potency between EcRs” value in assay [5] was “higher in non-lepidopteran species”.
In the case of `CC(C)(O)C(CCC(C)(O)C1CCC2(O)C3=CC(=O)C4CC(O)C(O)CC4(C)C3CCC12C)OC(=O)c1ccc[nH]1` (centres unmarked) [canescensterone], in assay [5], the “selectivity / relative potency between EcRs” value was “selective for non-lepidopteran EcRs; also recorded: BaEcR>E274V/V390I/Y410E mutant-CfEcR”. For the same compound, the response in assay [6] was half-maximal at 0.00053 µM (EC50).
As to `C[C@@H]1C(=O)O[C@H](C)[C@H]1C[C@@H](O)[C@](C)(O)[C@H]1CC[C@@]2(O)C3=CC(=O)[C@@H]4C[C@@H](O)[C@@H](O)C[C@]4(C)[C@H]3CC[C@]12C` [cyasterone], in assay [5], the “selectivity / relative potency between EcRs” value is “somewhat selective for lepidopteran EcRs”.
On to `CC(C)=CC[C@@H](O)[C@](C)(O)[C@H]1CC[C@@]2(O)C3=CC(=O)[C@@H]4C[C@@H](O)[C@@H](O)C[C@]4(C)[C@H]3CC[C@]12C` [stachysterone C], for which, in assay [5] (FIGS. 13 and 14), the “activity across the tested set of EcRs” value is given as “active”.

Broadly, the EC50 is the concentration needed to bring the measured effect to its halfway point.
